Test results taken from patent publication US20240368727A1, “METHOD OF SELECTIVE PRECIPITATION OF METALS USING AMIDE COMPOUNDS” (The University Court of the University of Edinburgh, priority 2021, published 2024).

Key:
[1] = Precipitation from 0.01 M mixed-metal solution in HCl (FIG. 2): other metals; details: 0.2 mmol solid L (10-fold excess), 0.01 M mixed-metal solution in 2 M HCl
Protocol: (§1) Hydrochloric acid solutions (2 M and 6 M) were prepared by dilution of concentrated hydrochloric acid with deionised water. Mixed-metal solutions (0.01 M) were typically prepared by dilution of 0.1 M stock solutions of each individual metal salt solution in 2 or 6 M HCl.
(§2) Solid compound L (0.2 mmol or 0.02 mmol) was added to a vial with a magnetic stir bar and the metal-containing aqueous solution (2 mL) added. The mixture was stirred for 1 hour at room temperature (20° C.) at 500 rpm after which the stir bar was removed and the vial centrifuged. The supernatant was decanted and samples prepared for ICP-OES analysis to measure the uptake of metal by L. Samples were diluted by 100× in 2% nitric acid prior to ICP-OES analysis. This procedure was repeated in triplicate.
(§3) FIG. 2 is a graph showing percentage metal(s) removed by precipitation from a 0.01 M mixed-metal solution in 2 M or 6 M HCl following the addition of either 0.2 mmol of compound L (10-fold excess L relative to metal) or 0.02 mmol of L (equimolar).

[2] = Quantitative NMR solubility experiments; format: physicochemical
Protocol: ^1H NMR spectra were recorded on a Bruker Avance III 400 MHz spectrometer. 2 M and 6 M HCl solutions were diluted from concentrated HCl in D2O. A 0.1 M solution of L in 2 M or 6 M HCl was prepared by adding L (0.0178 g) to an NMR tube along with the relevant HCl/D2O solution (0.55 mL) and 1 M tert-butanol in D2O (0.05 mL) as an internal standard. Any undissolved solids were allowed to settle to the bottom of the NMR tube before acquiring ^1H NMR spectra.
^1H NMR spectra were acquired for 2 M HCl solutions between 300-350 K in 10 K increments and for 6 M HCl solutions between 300-330 K in 10 K increments; attempts to acquire additional spectra beyond 330 K for these latter samples were unsuccessful due to excessive line broadening of the spectra and difficulties with sample locking.

[3] = Precipitation from 0.01 M mixed-metal solution in HCl (FIG. 2): Pt; details: excess L, 0.01 M mixed-metal solution in 6 M HCl
Protocol: as §1, §2, §3

[4] = Selective stripping with H-tube apparatus (FIG. 3)
Protocol: Solid L (0.2 mmol) was added to one side of the H-tube with a stir bar. The metal-containing aqueous solution (2 mL) was then added to the solids and the mixture stirred for 1 hour at room temperature at 500 rpm, after which it was passed through the glass frit of the H-tube with the aid of compressed air or N2 gas. The filtrate was collected for ICP-OES analysis to determine metal uptake. The solids were subsequently washed with 2 M HCl (3×2 mL) for 30 mins, with each 2 mL solution being passed through the glass frit of the H-tube. The solids were then washed with ultrapure deionised water (5×2 mL) in the same manner. The use of a H-tube allows for all solids to be retained in the same vessel to minimise any loss of metal due to material transfer. This procedure was repeated in duplicate.
(a) orange bars: Percentage metal removed by precipitation from a 0.01 M mixed-metal solution in 6 M HCl.
(b) green bars: percentage of metal stripped from the precipitate by a 2 M HCl wash.
(c) blue bars: percentage of metal stripped from the precipitate after a subsequent wash with DI water.

[5] = Precipitation from 0.01 M mixed-metal solution in HCl (FIG. 2): Sn; details: excess L, 0.01 M mixed-metal solution in 6 M HCl
Protocol: as §1, §2, §3

[6] = Precipitation from multi-element ICP standard solutions (FIG. 4, FIG. 25): Tl; details: excess compound, 24 hours, RT
Protocol: (§4) The following ICP multi-element standard solutions were used: Transition metal mix 3 for ICP supplied by Sigma Aldrich comprising 100 mg L^−1 Au, Ir, Os, Pd, Pt, Rh, Ru in 10% hydrochloric acid and ICP multi-element standard solution IV comprising 1000 mg L^−1 Ag, Al, B, Ba, Bi, Ca, Cd, Co, Cr, Cu, Fe, Ga, In, K, Li, Mg, Mn, Na, Ni, Pb, Sr, Tl, Zn in dilute nitric acid.
(§5) Each solution (1 mL) was diluted to 10 mL using either 2 M HCl or 6 M HCl, resulting in solutions of 10 ppm Au, Ir, Os, Pd, Pt, Rh, Ru and 100 mg L^−Al, B, Ba, Bi, Ca, Cd, Co, Cr, Cu, Fe, Ga, In, K, Li, Mg, Mn, Na, Ni, Pb, Sr, Tl, Zn. The solutions were filtered prior to use in precipitation experiments due to the precipitation of silver chloride, which was subsequently excluded from ICP-OES analysis. The precipitation method used for the 0.01 M mixed-metal solutions was followed.
(§6) FIGS. 25(a)-(c) show alternative embodiments of the compounds that were tested. Conditions were: 0.2 mmol of compound contacted with a 2 M or 6 M HCl multi element solution for 24 hours, RT.
(§7) The solution comprised: • 10 mg L^−1 Au, Ir, Os, Pd, Pt, Rh, Ru; and • 100 mg L^−1 Al, B, Ba, Bi, Ca, Cd, Co, Cr, Cu, Fe, Ga, In, K, Li, Mg, Mn, Na, Ni, Pb, Sr, Tl, Zn/

[7] = Precipitation from 0.01 M mixed-metal solution of precious metals in 6 M HCl (FIG. 10); details: 0.01 M precious metals in 6 M HCl
Protocol: FIG. 10 Graph showing percentage metal(s) removed by precipitation from a 0.01 M mixed-metal solution of precious metals in 6 M HCl following the addition of either 0.2 mmol of compound L (10-fold excess L relative to metal) or 0.02 mmol of L (equimolar);
as §1, §2
Referring to FIG. 10, there is shown a graph depicting percentage metal(s) removed by precipitation from a 0.01 M mixed-metal solution of precious metals in 6 M HCl following the addition of either 0.2 mmol of compound L (10-fold excess L relative to metal) or 0.02 mmol of L (equimolar).

[8] = Selective precipitation from waste printed circuit boards (Table 3): Au; details: 20% aqua regia solution from waste printed circuit boards; 0.02 mmol L, 1 hour
Protocol: (§8) End-of-life printed circuit boards were supplied by Edinburgh School of Chemistry workshop. Gold-tipped sections of the circuit boards (22.85 g) were cut off and soaked in 100 mL aqua regia for 24 hours. This solution was then diluted with deionised water to 250 mL and the metal content analysed by ICP-OES.
(§9) An aliquot of the e-waste solution (2 mL) was stirred with L (0.0059 g, 0.02 mmol, excess with respect to the gold concentration) for 1 hour at room temperature after which the stir bar was removed and the vial centrifuged. The supernatant was decanted and samples prepared for ICP-OES analysis to measure the uptake of metal. Samples were diluted by 1000× and 20× in 2% nitric acid prior to ICP-OES analysis. This procedure was repeated in triplicate.

[9] = Precipitation from multi-element ICP standard solutions (FIG. 4): Pt; details: multi-element ICP standard solutions in HCl, Pt present as Pt(II), excess L
Protocol: as §4, §5

[10] = Gold precipitation from HAuCl4 solutions versus acid concentration and temperature (FIGS. 7-9)
[11] = Selective precipitation from waste printed circuit boards (Table 3): Ni; details: 20% aqua regia solution from waste printed circuit boards; 0.02 mmol L, 1 hour
Protocol: as §8, §9

[12] = Precipitation from multi-element ICP standard solutions (FIG. 4, FIG. 25): Ga; details: 6 M HCl multi-element solution (100 mg L^−1 Ga), excess compound, 24 hours, RT
Protocol: as §4, §5, §6, §7

[13] = Precipitation from 0.01 M mixed-metal solution in HCl (FIG. 2): Fe; details: excess L, 0.01 M mixed-metal solution in 6 M HCl
Protocol: as §1, §2, §3

[14] = Precipitation from multi-element ICP standard solutions (FIG. 4, FIG. 25): Fe; details: 6 M HCl multi-element solution (100 mg L^−1 Fe), excess compound, 24 hours, RT
Protocol: as §4, §5, §6, §7

[15] = Precipitation from 0.01 M mixed-metal solution in HCl (FIG. 2): Au
Protocol: as §1, §2, §3

[16] = Selective precipitation from waste printed circuit boards (Table 3): Sn; details: 20% aqua regia solution from waste printed circuit boards; 0.02 mmol L, 1 hour
Protocol: as §8, §9

[17] = Precipitation of Au by L from various aqueous matrices (Table 1); details: 0.059 g L, 1 hour, room temperature
Protocol: Conditions: 2 mL Au solution contacted with 0.059 g L for 1 hour, room temperature. Solution filtered and diluted 100× in 2% HNO3 prior to ICP-OES analysis. *HAuCl4 used. **Au^0 added to sulfuric acid solution with a few drops of 30% hydrogen peroxide added to aid dissolution of Au. All solutions were diluted 100× prior to ICP-OES analysis.

[18] = Selective precipitation from waste printed circuit boards (Table 3): Cu; details: 20% aqua regia solution from waste printed circuit boards; 0.02 mmol L, 1 hour
Protocol: as §8, §9

[19] = Selective precipitation from waste printed circuit boards (Table 3): Pb; details: 20% aqua regia solution from waste printed circuit boards; 0.02 mmol L, 1 hour
Protocol: as §8, §9

[20] = Precipitation from multi-element ICP standard solutions (FIG. 4, FIG. 25): Au; details: excess compound, 24 hours, RT
Protocol: as §4, §5, §6, §7

[21] = Precipitation of HAuCl4 by L from 2 M HCl (Table 2); details: 0.01M HAuCl4 in 2M HCl after contact with L
Protocol: Table 2 below describes precipitation of HAuCl4 by L from 2 M HCl followed by its release from L as HAuCl4 using deionised water. All solutions were diluted 100× prior to ICP-OES analysis.

CN(CCN(C)C(=O)c1ccccc1)C(=O)c1ccccc1 [L]
co-precipitation of other metals [1]: < 5% | concentration of dissolved L ([2]; 2 M HCl, heated to 350 K): 100 µM | Dissolution of L (concentration of dissolved L) ([2]; 2 M HCl, quantitative 1H NMR): 0.02 mM | concentration of dissolved L ([2]; 6 M HCl, 300 K): 320 µM | increase in dissolved L on increasing HCl from 2 M to 6 M ([2]; 300 K): 16 fold | uptake of Pt [3]: complete uptake | metal stripped from the precipitate by a 2 M HCl wash ([4]; L loaded with Au, Fe, Pt and Sn at 6 M HCl, then wash with 2 M HCl): dissolution of Fe, Sn and Pt only, with Au retained on the solids | metal stripped from the precipitate by subsequent wash with DI water ([4]; isolated solids after the 2 M HCl wash, washed with DI water): releases the Au into solution | uptake of Sn [5]: complete uptake | % uptake / precipitation of Tl ([6]; 2 M HCl multi-element solution (100 mg L^−1 Tl)): 10% | % uptake / precipitation of Tl ([6]; 6 M HCl multi-element solution (100 mg L^−1 Tl)): 95% | metal(s) removed by precipitation (selectivity) ([7]; equimolar L (0.02 mmol)): selective precipitation of gold over other precious metals | metal(s) removed by precipitation (selectivity) ([7]; excess L (0.2 mmol, 10-fold)): selective co-precipitation of gold and platinum | % metal precipitated, Au [8]: 98.1% | Pt uptake [9]: no Pt uptake | quantity of [HL][AuCl4] precipitated over 5 minutes on raising temperature ([10]; 2 M HCl, from 20 to 40° C. and from 40 to 80° C.): doubles | precipitation of [HL][AuCl4] on addition of HAuCl4 ([10]; solution of L in 12 M HCl): rapid and wholesale precipitation | % metal precipitated, Ni [11]: 0% | % uptake / precipitation of Ga [12]: > 99% | uptake of Fe [13]: complete uptake | % uptake / precipitation of Fe [14]: 70% | removal of Au by precipitation ([15]; 0.2 mmol solid L (10-fold excess), 0.01 M each of Au, Al, Cu, Ni, Fe, Zn, Pt, Pd, Sn in 2 M HCl): near quantitative removal of Au | uptake of Au ([15]; excess L, 0.01 M mixed-metal solution in 6 M HCl): complete uptake | metal uptake (selectivity) ([15]; stoichiometric L (0.02 mmol), 0.01 M mixed-metal solution in 2 M HCl): gold uptake only | metal uptake (selectivity) ([15]; stoichiometric L, 0.01 M mixed-metal solution in 6 M HCl): selective gold uptake | % metal precipitated, Sn [16]: 0% | % Precipitated ([17]; 2 mol L^−1 H2SO4 and 2M NaBr, Au^0 with H2O2, initial Au 1930 mg L^−1): 99.5% | % Precipitated ([17]; 2 mol L^−1 H2SO4 and 2M NaCl, Au^0 with H2O2, initial Au 1940 mg L^−1): 99.4% | % Precipitated ([17]; 20% Aqua regia, HAuCl4 used, initial Au 1920 mg L^−1): 99.8% | % Precipitated ([17]; 100% Aqua regia, HAuCl4 used, initial Au 1920 mg L^−1): 99.7% | % metal precipitated, Cu [18]: 0% | % metal precipitated, Pb [19]: 0% | % uptake / precipitation of Au ([20]; 2 M HCl multi-element solution (10 mg L^−1 Au)): 70% | % uptake / precipitation of Au ([20]; 6 M HCl multi-element solution (10 mg L^−1 Au)): > 99% | % Precipitation [21]: 99.6%
